Measurements taken from article PMC5947510 (2015).

Tested on: pre-miR-27a (RNA, miRNA) GGGCUGAGGAGCAGGGCUUAGCUGCUUGUGAGCAGGGUCCACACCAAGUCGUGUUCACAGUGGCUAAGUUCCGCCCCCCAG
Assay: fluorescence titration (bisbenzimidazole emission)
Conditions: 10 mM NaCl, 1 mM MgCl2; 10 mM sodium cacodylate, pH 7.5, 25 °C; compound 500 nM

Row | Ka | SMILES
1 | 3.4e+06 M⁻¹ | CN1CCN(c2ccc3nc(-c4ccc5nc(-c6ccc(O)cc6)[nH]c5c4)[nH]c3c2)CC1
2 | 1.2e+07 M⁻¹ | CN1CCN(c2ccc3nc(-c4ccc5nc(-c6ccc(OCCCCCCCCCCOCc7cn(C[C@H]8O[C@@H](O[C@@H]9[C@@H](O)[C@H](N)C[C@H](N)[C@H]9O[C@H]9O[C@H](CN)[C@@H](O)[C@H](O)[C@H]9N)[C@H](O)[C@@H]8O[C@H]8O[C@@H](CN)[C@@H](O)[C@H](O)[C@H]8N)nn7)cc6)[nH]c5c4)[nH]c3c2)CC1
3 | 3.2e+08 M⁻¹ | CN1CCN(c2ccc3nc(-c4ccc5nc(-c6ccc(OCCCCCCCCCc7cn(C[C@H]8O[C@@H](O[C@@H]9[C@@H](O)[C@H](N)C[C@H](N)[C@H]9O[C@H]9O[C@H](CN)[C@@H](O)[C@H](O)[C@H]9N)[C@H](O)[C@@H]8O[C@H]8O[C@@H](CN)[C@@H](O)[C@H](O)[C@H]8N)nn7)cc6)[nH]c5c4)[nH]c3c2)CC1
4 | 2.5e+07 M⁻¹ | CN1CCN(c2ccc3nc(-c4ccc5nc(-c6ccc(OCCCCCCCCOCc7cn(C[C@H]8O[C@@H](O[C@@H]9[C@@H](O)[C@H](N)C[C@H](N)[C@H]9O[C@H]9O[C@H](CN)[C@@H](O)[C@H](O)[C@H]9N)[C@H](O)[C@@H]8O[C@H]8O[C@@H](CN)[C@@H](O)[C@H](O)[C@H]8N)nn7)cc6)[nH]c5c4)[nH]c3c2)CC1
5 | 1.2e+08 M⁻¹ | CN1CCN(c2ccc3nc(-c4ccc5nc(-c6ccc(OCCCCCCOCc7cn(C[C@H]8O[C@@H](O[C@@H]9[C@@H](O)[C@H](N)C[C@H](N)[C@H]9O[C@H]9O[C@H](CN)[C@@H](O)[C@H](O)[C@H]9N)[C@H](O)[C@@H]8O[C@H]8O[C@@H](CN)[C@@H](O)[C@H](O)[C@H]8N)nn7)cc6)[nH]c5c4)[nH]c3c2)CC1
6 | 7.4e+08 M⁻¹ | CN1CCN(c2ccc3nc(-c4ccc5nc(-c6ccc(OCCCCOCc7cn(C[C@H]8O[C@@H](O[C@@H]9[C@@H](O)[C@H](N)C[C@H](N)[C@H]9O[C@H]9O[C@H](CN)[C@@H](O)[C@H](O)[C@H]9N)[C@H](O)[C@@H]8O[C@H]8O[C@@H](CN)[C@@H](O)[C@H](O)[C@H]8N)nn7)cc6)[nH]c5c4)[nH]c3c2)CC1
